Data taken from US20040132715A1, “Method to treat allergic rhinitis” (priority 2002, published 2004).
Several values for one entry are separate records, joined by “and”; a condition that tells them apart may be missing. Equal entries are not always repeated.

How the values were obtained:
Assay type in all cases: in vivo
[1] = test system: Zymosan Induced Peritonitis in Mice; assay: Zymosan induced peritonitis in mice (PMN influx into peritoneal cavity); conditions: for effect on PMN influx (in words): Imetit, thioperamide 5 mg/kg, s.c.; for PMN (10^6 per mouse), mean: group mean; for PMN (10^6 per mouse), mean / PMN (10^6 per mouse), single mice: s.c. at -15 min and +2 h (Compound 1 10 mg/kg; Imetit, Thioperamide 5 mg/kg), 1 mg zymosan A i.p.; for PMN (10^6 per mouse), single mice: lavage at 4 h
Description: This is commonly used to induce peritonitis in mice and appears to act in a mast cell dependent manner. Male out-bred Swiss albino mice were purchased from Bantin and Kingman (T.O. strain; Hull, Humberside) and maintained on a standard chow pellet diet with tap water ad libitum and a 12:00 h light /dark cycle. All animals were housed for at least 3 days prior to experimentation to allow body weight to reach ˜30 g on the day of the experiment. […] Animals were briefly (30-60 s) anesthetized with halothane for all s.c. and i.p. treatments described below. Drugs were stored at room temperature, in the dark. On the day of the experiment, drugs were dissolved in sterile PBS as depicted below, and generously vortexed. […] Time −15 min: Compounds or PBS administered s.c. at the reported doses. Time 0: At time 0, mice received 1 mg zymosan A (Sigma) i.p. Time +2 h: Compounds or PBS administered s.c. at the reported doses. […] Peritoneal cavities were washed 4 h later with 3 mL of PBS containing 3 mM EDTA, and the number of migrated leukocytes determined, by taking an aliquot (100 μL) of the lavage fluid and diluting 1:10 in Turk's solution (0.01% crystal violet in 3% acetic acid). The samples were then vortexed and 10 μL of the stained cell solution were placed in a Neubauer haemocytometer. Differential cell counts were performed using a light microscope (Olympus B061). […] Statistical differences were determined by Anova followed by Bonferroni's post-hoc test.

[2] = test system: Sodium Urate Crystal Induced Peritonitis in Mice; assay: Sodium urate crystal (MSU) induced peritonitis in mice (PMN migration)
Description: Such crystals are the primary cause of the inflammation associated with acute gouty arthritis.
Male out-bred Swiss albino mice were purchased from Bantin and Kingman (T.O. strain; Hull, Humberside) and maintained on a standard chow pellet diet with tap water ad libitum and a 12:00 h light/dark cycle. All animals were housed for at least 3 days prior to experimentation to allow body weight to reach ˜30 g on the day of the experiment. For this particular experiment body weight was 30±1 (n=32).
Compound 1 was stored at room temperature in the dark. […] Mice received 3 mg mono sodium urate crystals (MSU) given intra-peritoneally at time 0.
Time +6 h: Peritoneal cavities were washed 6 h later with 3 mL of PBS containing 3 mM EDTA, and the number of migrated leukocytes determined, by taking an aliquot (100 μL) of the lavage fluid and diluting 1:10 in Turk's solution (0.01% crystal violet in 3% acetic acid). The samples were then vortexed and 10 μL of the stained cell solution were placed in a Neubauer hematocytometer. Differential cell counts were performed using a light microscope (Olympus B061). In view of their chromatic characteristics and their nucleus and cytoplasm appearance, cells polymorphonuclear cells (PMN, >95% neutrophils) could be easily differentiated
Experimental groups are described below:
Data are shown for single mice, and also shown as mean ±SE of (n) mice per group. Statistical differences were determined by Student's t test. A P value <0.05 was taken as significant.
PMN influx into the peritoneal cavity was measured at the 6 h time-point after collection of the lavage fluids and specific staining as described in the experimental section.

[3] = test system: Croton Oil Induced Topical Inflammation in Mice; assay: Croton oil induced topical inflammation in mice (ear swelling); conditions: for Difference in ear Thickness, Mean: group mean, s.c. x3 (Compound 1 10 mg/kg; Indomethacin 30 mg/kg), 6 h after croton oil

CN1CCN(C(=O)c2cc3cc(Cl)ccc3[nH]2)CC1 [Compound 1, (5-Chloro-1H-indol-2-yl)-(4-methyl-piperazin-1-yl)-methanone]
effect on PMN influx (in words) ([1]; Compound 1 10 mg/kg, 4 h): significantly reduced PMN influx
PMN (10^6 per mouse), mean ([1]; 4 h): 6.6 10^6 per mouse
PMN (10^6 per mouse), single mice [1]: 9.9 10^6 per mouse and 3.6 10^6 per mouse and 9.3 10^6 per mouse and 3.3 10^6 per mouse and 8.1 10^6 per mouse and 5.1 10^6 per mouse and 6.9 10^6 per mouse
effect on PMN migration (in words) ([2]; 10 mg/kg s.c., 6 h): significantly reduced PMN migration
PMN (10^6 per mouse), mean ([2]; group mean, 10 mg/kg s.c. at -15 min, +2 h and +4 h, 3 mg MSU crystals i.p., 6 h time-point): 6.8 10^6 per mouse
PMN (10^6 per mouse), single mice ([2]; single mice, 10 mg/kg s.c. at -15 min, +2 h and +4 h, 3 mg MSU crystals i.p., 6 h time-point, 10 mg/kg): 7.8 10^6 per mouse (2×) and 4.5 10^6 per mouse and 3.0 10^6 per mouse and 8.1 10^6 per mouse and 9.3 10^6 per mouse and 6.6 10^6 per mouse and 7.2 10^6 per mouse
effect on ear swelling (in words) ([3]; 10 mg/kg x 3 s.c.): significantly reduced the swelling
inhibition at 10 mg/kg ([3]; Mus musculus, sc, 6 h, read-out: % inhib (ear swelling)): 28%
Difference in ear Thickness, Mean [3]: 12.0 × 0.01 mm
Difference in ear Thickness, single mice ([3]; single mice, s.c. 30 min before, 2 and 4 h after croton oil (Compound 1 10 mg/kg; Indomethacin 30 mg/kg), measured 6 h after croton oil): 12 × 0.01 mm and 10 × 0.01 mm and 13 × 0.01 mm and 9 × 0.01 mm and 16 × 0.01 mm

N=C(N)SCCc1cnc[nH]1 [Imetit]
effect on PMN influx (in words) ([1]; Compound 1 10 mg/kg, 4 h): inactive
PMN (10^6 per mouse), mean ([1]; 4 h): 17.3 10^6 per mouse

COc1ccc2c(c1)c(CC(=O)O)c(C)n2C(=O)c1ccc(Cl)cc1 [Indomethacin, reference compound]
Difference in ear Thickness, Mean [3]: 10.0 × 0.01 mm

S=C(NC1CCCCC1)N1CCC(c2cnc[nH]2)CC1 [Thioperamide]
effect on PMN influx (in words) ([1]; Compound 1 10 mg/kg, 4 h): significant inhibitory effect
PMN (10^6 per mouse), mean ([1]; 4 h): 9.3 10^6 per mouse
PMN (10^6 per mouse), single mice [1]: 9.3 10^6 per mouse and 16.5 10^6 per mouse and 7.2 10^6 per mouse and 10.8 10^6 per mouse and 5.4 10^6 per mouse and 9.9 10^6 per mouse and 6.9 10^6 per mouse and 8.1 10^6 per mouse
% inhib (PMN influx) ([1]; vs PBS group, Compound 1 10 mg/kg, Thioperamide 5 mg/kg s.c., 4 h): (−46%)
